# Test results: PubChem BioAssay AID1259407 (Chemical Carcinogenesis Research Information System (CCRIS), 2018)
# Calls of active or inactive are those of the source. No rule for the calls is given here.
# Tested on: CCRIS mutagenicity, Ames/micronucleus/aberration tests
# Assay: CCRIS mutagenicity studies
# [1] = Test System: AMES SALMONELLA TYPHIMURIUM, Strain/Indicator: TA100, Metabolic Activation: RAT, LIVER, S-9, AROCLOR 1254, Method: STANDARD PLATE
# [2] = Test System: AMES SALMONELLA TYPHIMURIUM, Strain/Indicator: TA98, Metabolic Activation: NONE, Method: STANDARD PLATE
# [3] = Test System: AMES SALMONELLA TYPHIMURIUM, Strain/Indicator: TA98, Metabolic Activation: RAT, LIVER, S-9, AROCLOR 1254, Method: STANDARD PLATE
# [4] = Test System: AMES SALMONELLA TYPHIMURIUM, Strain/Indicator: TA100, Metabolic Activation: NONE, Method: STANDARD PLATE
# [5] = Test System: AMES SALMONELLA TYPHIMURIUM, Strain/Indicator: TA100, Metabolic Activation: NONE, Method: PREINCUBATION
# [6] = Test System: AMES SALMONELLA TYPHIMURIUM, Strain/Indicator: TA98, Metabolic Activation: NONE, Method: PREINCUBATION
# [7] = Test System: AMES SALMONELLA TYPHIMURIUM, Strain/Indicator: TA1537, Metabolic Activation: NONE, Method: STANDARD PLATE
# [8] = Test System: AMES SALMONELLA TYPHIMURIUM, Strain/Indicator: TA1537, Metabolic Activation: RAT, LIVER, S-9, AROCLOR 1254, Method: STANDARD PLATE
structure (smiles),measurement,setting,value
O=C1NCCN1/N=C/c1ccc([N+](=O)[O-])o1,mutagenic call,"Test System: AMES SALMONELLA TYPHIMURIUM, Strain/Indicator: TA98, Metabolic Activation: NONE",active; positive
same,mutagenic call,"Test System: AMES SALMONELLA TYPHIMURIUM, Strain/Indicator: TA98, Metabolic Activation: S-9",inactive; negative
same,mutagenic call,"Test System: AMES SALMONELLA TYPHIMURIUM, Strain/Indicator: TA100, Metabolic Activation: NONE",active; positive
same,mutagenic call,"Test System: AMES SALMONELLA TYPHIMURIUM, Strain/Indicator: TA100, Metabolic Activation: S-9",active; positive
Cc1c2cc(CO)ccc2nc2c3c(ccc12)[C@H](O)[C@@H](O)C=C3,mutagenic call,[1],active; positive
c1ccc2cc3c(ccc4cccnc43)cc2c1,mutagenic call,[2],inactive; negative
same,mutagenic call,[3],active; positive
same,mutagenic call,[4],inactive; negative
same,mutagenic call,[1],inactive; negative
Nc1nc(Cl)nc2c1ncn2[C@H]1C[C@H](O)[C@@H](CO)O1,mutagenic call,"End Point: In vivo chromosomal aberrations, Test System: Bone marrow cells, Species: Mouse, Strain/Sex: Balb/C/Male and female, Route: Intraperitoneal",inactive; negative
CC1(C)CCC[C@]2(C)C(C=O)C(C=O)=CC[C@@H]12 (stereo not given in full),mutagenic call,[3],inactive; negative
same,mutagenic call,[4],inactive; negative
same,mutagenic call,"Test System: AMES SALMONELLA TYPHIMURIUM, Strain/Indicator: TA2637, Metabolic Activation: NONE, Method: STANDARD PLATE",inactive; negative
same,mutagenic call,"Test System: CHINESE HAMSTER V-79, Strain/Indicator: V-79/6-THIOGUANINE (HGPRT), Metabolic Activation: NONE",inactive; negative
Cc1c(O)cc([N+](=O)[O-])cc1[N+](=O)[O-],mutagenic call,"Test System: AMES SALMONELLA TYPHIMURIUM, Strain/Indicator: TA98, Metabolic Activation: RAT, LIVER, S-9, KANECHLOR 500, Method: PREINCUBATION",inactive; negative
same,mutagenic call,[5],inactive; negative
same,mutagenic call,"Test System: AMES SALMONELLA TYPHIMURIUM, Strain/Indicator: TA100, Metabolic Activation: RAT, LIVER, S-9, KANECHLOR 500, Method: PREINCUBATION",inactive; negative
C=C(C)[C@H]1CC=C(C)C(=O)C1,mutagenic call,"Test System: AMES SALMONELLA TYPHIMURIUM, Strain/Indicator: TA98, Metabolic Activation: HAMSTER, LIVER, S-9, AROCLOR 1254, Method: PREINCUBATION",inactive; negative
same,mutagenic call,[6],inactive; negative
same,mutagenic call,"Test System: AMES SALMONELLA TYPHIMURIUM, Strain/Indicator: TA98, Metabolic Activation: RAT, LIVER, S-9, AROCLOR 1254, Method: PREINCUBATION",inactive; negative
same,mutagenic call,"Test System: AMES SALMONELLA TYPHIMURIUM, Strain/Indicator: TA100, Metabolic Activation: HAMSTER, LIVER, S-9, AROCLOR 1254, Method: PREINCUBATION",inactive; negative
same,mutagenic call,[5],inactive; negative
same,mutagenic call,"Test System: AMES SALMONELLA TYPHIMURIUM, Strain/Indicator: TA100, Metabolic Activation: RAT, LIVER, S-9, AROCLOR 1254, Method: PREINCUBATION",inactive; negative
same,mutagenic call,"Test System: AMES SALMONELLA TYPHIMURIUM, Strain/Indicator: TA1535, Metabolic Activation: HAMSTER, LIVER, S-9, AROCLOR 1254, Method: PREINCUBATION",inactive; negative
same,mutagenic call,"Test System: AMES SALMONELLA TYPHIMURIUM, Strain/Indicator: TA1535, Metabolic Activation: NONE, Method: PREINCUBATION",inactive; negative
same,mutagenic call,"Test System: AMES SALMONELLA TYPHIMURIUM, Strain/Indicator: TA1535, Metabolic Activation: RAT, LIVER, S-9, AROCLOR 1254, Method: PREINCUBATION",inactive; negative
same,mutagenic call,"Test System: AMES SALMONELLA TYPHIMURIUM, Strain/Indicator: TA1537, Metabolic Activation: HAMSTER, LIVER, S-9, AROCLOR 1254, Method: PREINCUBATION",inactive; negative
same,mutagenic call,"Test System: AMES SALMONELLA TYPHIMURIUM, Strain/Indicator: TA1537, Metabolic Activation: NONE, Method: PREINCUBATION",inactive; negative
same,mutagenic call,"Test System: AMES SALMONELLA TYPHIMURIUM, Strain/Indicator: TA1537, Metabolic Activation: RAT, LIVER, S-9, AROCLOR 1254, Method: PREINCUBATION",inactive; negative
CC(=O)Nc1ccc(C)c(N)c1,mutagenic call,[6],inactive; negative
same,mutagenic call,"Test System: AMES SALMONELLA TYPHIMURIUM, Strain/Indicator: TA98, Metabolic Activation: RAT, LIVER, S-9, PHENOBARBITAL AND 5,6-BENZOFLAVONE, Method: PREINCUBATION",active; positive
COc1cc(O)c2c(c1)C(=O)c1c(O)c(C)cc(O)c1C2=O,mutagenic call,[7],inactive; negative
same,mutagenic call,"Test System: AMES SALMONELLA TYPHIMURIUM, Strain/Indicator: TA1537, Metabolic Activation: S-9, Method: STANDARD PLATE",active; positive
CC1=C[C@@H]2c3cccc4[nH]cc(c34)C[C@H]2N(C)C1,mutagenic call,[3],active; positive
same,mutagenic call,[4],inactive; negative
same,mutagenic call,[1],active; positive
same,mutagenic call,[8],inactive; negative
COc1ccc(C(=O)n2ncc(Cl)c(Cl)c2=O)cc1,mutagenic call,[2],inactive; negative
same,mutagenic call,[3],inactive; negative
same,mutagenic call,[4],inactive; negative
same,mutagenic call,[1],inactive; negative
same,mutagenic call,"Test System: AMES SALMONELLA TYPHIMURIUM, Strain/Indicator: TA1535, Metabolic Activation: NONE, Method: STANDARD PLATE",inactive; negative
same,mutagenic call,"Test System: AMES SALMONELLA TYPHIMURIUM, Strain/Indicator: TA1535, Metabolic Activation: RAT, LIVER, S-9, AROCLOR 1254, Method: STANDARD PLATE",inactive; negative
same,mutagenic call,[7],inactive; negative
same,mutagenic call,[8],inactive; negative
